In publication PMC6522510 (Nature Communications, 2019):
Structures can show the parent of a compound that is named as a salt. Where two headings read alike, the source gives them in different places.

How the values were obtained:
Parameters in all cases: species or system AML cell lines (8); Primary HTS, single concentration about 10 uM, Cell Titer Glo viability; log10 luminescence, per cent inhibition relative to cycloheximide control
Conditions in all cases: 72 h, relative to cycloheximide control, log10 luminescence, inhibitor
CHRF288-11 = system: CHRF288-11
CMK = system: CMK
CMS = system: CMS
M07e = system: M07e
ML-2 = system: ML-2
MOLM-13 = system: MOLM-13
MV4-11 = system: MV4-11
U937 = system: U937

Compound	CHRF288-11 %inh (CHRF288-11) [%]	CMK %inh (CMK) [%]	CMS %inh (CMS) [%]	M07e %inh (M07e) [%]	ML-2 %inh (ML-2) [%]	MOLM-13 %inh (MOLM-13) [%]	MV4-11 %inh (MV4-11) [%]	U937 %inh (U937) [%]	CHRF288-11 %inh (CHRF288-11; CHRF288-11 %inh, 10 µM) [%]	CMK %inh (CMK; CMK %inh, 10 µM) [%]	CMS %inh (CMS; CMS %inh, 10 µM) [%]	M07e %inh (M07e; M07e %inh, 10 µM) [%]	ML-2 %inh (ML-2; ML-2 %inh, 10 µM) [%]	MOLM-13 %inh (MOLM-13; MOLM-13 %inh, 10 µM) [%]	MV4-11 %inh (MV4-11; MV4-11 %inh, 10 µM) [%]	U937 %inh (U937; U937 %inh, 10 µM) [%]
Nc1ncc(-c2cccc(S(N)(=O)=O)c2)c2scc(-c3ccc(F)c(Cl)c3)c12 [SJ000573321-1, T398/119/1]	3.763	13	4.233	3.71	3.028	16.59	8.004	8.699								
CCCC[C@@H](C=O)NC(=O)[C@H](CC(C)C)NC(=O)OCc1ccccc1 [SJ000755074-1, CALPEPTIN]									18.64	-0.01297	3.296	0.9114	-0.6331	2.613	4.895	2.282
CS(=O)(=O)CCNCc1ccc(-c2ccc3ncnc(Nc4ccc(OCc5ccccc5)cc4)c3c2)o1 [SJ000573093-1, R1325/200/3]	1.417	1.449	0.8735	6.213	1.913	25.45	19.4	-1.059								
Cn1c(=O)c(Cc2ccccc2F)cc2cnc(NC3CCOCC3)nc21 [SJ000580958-1]	0.1529	5.964	0.1397	0.7689	0.5571	5.832	6.415	8.088								
N#Cc1c(NC(=O)c2ccc(F)cc2)sc2c1CCCC2 [SJ000573282-1, R15619/128/1]	20.67	5.634	0.2829	6.55	2.372	3.13	-0.9119	2.356								
O=C1Cc2c([nH]c3ccc(Br)cc23)-c2ncccc2N1 [SJ000773177-1, 1-AZAKENPAULLONE]	3.099	-2.288	11.6	0.4716	3.703	1.556	9.942	4.514								
Nc1ncnc2occ(-c3ccc(NC(=O)Nc4cc(C(F)(F)F)ccc4F)cc3)c12 [SJ000573048-2, CL210513-029A3 | T299/89/1 | YF46626-103A2]									5.114	82.88	10.62	28.03	4.549	99.82	78.92	50.36
O=c1[nH]c2nc(NC3CCOCC3)ncc2cc1Oc1ccc(F)cc1F [SJ000581091-1]	2.671	-0.7252	4.57	7.401	-1.12	-2.415	0.8036	1.694								
C[C@@H](CS(C)(=O)=O)Nc1ncc2cc(Oc3ccc(F)cc3F)c(=O)n(C)c2n1 [SJ000581059-2]	4.121	2.224	1.072	9.03	-1.135	1.811	3.472	2.114								
CC(C)[C@H](NS(=O)(=O)c1ccc(-c2ccc(Br)cc2)cc1)C(=O)O [SJ000772395-1, PD 166793]	2.843	1.088	-2.252	-2.219	-0.8645	0.2317	-0.00905	3.907								
CCn1c(-c2nonc2N)nc2ccc(F)cc21 [SJ000573344-1, U17602/50/1]	4.16	-0.9351	-1.218	1.126	-0.6145	3.561	-0.453	-1.756								
C[C@H]1O[C@@H](O[C@H]2[C@@H](O)C[C@H](O[C@H]3[C@@H](O)C[C@H](O[C@H]4CC[C@@]5(C)[C@H](CC[C@@H]6[C@@H]5C[C@@H](O)[C@]5(C)[C@@H](C7=CC(=O)OC7)CC[C@]65O)C4)O[C@@H]3C)O[C@@H]2C)C[C@H](O)[C@@H]1O [SJ000285739-7, DIGOXIN]									112.6		94.04		58.17	85.14	73.33	-15.97
Cc1cc(NS(=O)(=O)c2ccc(N)cc2)no1 [SJ000285603-4, SULFAMETHOXAZOLE]	6.539	-0.9998	-0.6486	0.538		-2.87	0.1304	-2.098								
C[N+]1(C)CCC(OC(=O)C(O)(c2ccccc2)C2CCCC2)C1 (stereo not drawn) [SJ000287387-2, GLYCOPYRROLATE]	7.948	-4.149	-3.738	3.68		6.707	0.8412	2.372								
Cc1cnc(C(=O)NCCc2ccc(S(=O)(=O)NC(=O)NC3CCCCC3)cc2)cn1 [SJ000287188-5, GLIPIZIDE]	-3.512	3.258	1.05	3.86		17.27	-0.3606	0.1954								
CC(=O)N(O)CCCCCNC(=O)CCC(=O)N(O)CCCCCNC(=O)CCC(=O)N(O)CCCCCN [SJ000285725-4, DEFEROXAMINE MESYLATE]		16.85							11.08		42.04	6.608	7.19	17.22	2.029	
CN(CCOc1ccc(NS(C)(=O)=O)cc1)CCc1ccc(NS(C)(=O)=O)cc1 [SJ000555707-1, DOFETILIDE]	-0.9409	10.12		3.914	3.818	10.35	4.51	5.896								
